Source: PubChem BioAssay AID248 (DTP/NCI, 2004)
Values joined by “and” are separate entries in the source; they are usually repeats but may differ in a detail not shown here. Equal entries are not always repeated. Inconclusive results and toxic doses are left out.

Test system: L1210 leukemia ip in BDF1 mice, survival T/C
Assay: NCI In Vivo Anticancer Drug Screen. Data for tumor model L1210 Leukemia (intraperitoneal) in B6D2F1 (BDF1) mice
Conditions: endpoint: mean survival time, higher = longer survival
Method in brief: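 Value reflects the ratio of survival in compound-treated mice to survival in vehicle-treated controls, with both groups carrying the same transplanted tumor.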

[1] = dose: 100.0 mg/kg/injection, schedule: Q01DX009 (ip), vehicle: Klucel (hydroxypropylcellulose) (HPC)
[2] = dose: 100.0 mg/kg/injection, schedule: Q04DX003 (ip), vehicle: Klucel (hydroxypropylcellulose) (HPC)
[3] = dose: 200.0 mg/kg/injection, schedule: Q01DX009 (ip), vehicle: Klucel (hydroxypropylcellulose) (HPC)
[4] = dose: 200.0 mg/kg/injection, schedule: Q04DX003 (ip), vehicle: Klucel (hydroxypropylcellulose) (HPC)
[5] = dose: 400.0 mg/kg/injection, schedule: Q04DX003 (ip), vehicle: Klucel (hydroxypropylcellulose) (HPC)
[6] = dose: 100.0 mg/kg/injection, schedule: Q01DX001 (ip), vehicle: Klucel (hydroxypropylcellulose) (HPC)
[7] = dose: 200.0 mg/kg/injection, schedule: Q01DX001 (ip), vehicle: Klucel (hydroxypropylcellulose) (HPC)
[8] = dose: 400.0 mg/kg/injection, schedule: Q01DX001 (ip), vehicle: Klucel (hydroxypropylcellulose) (HPC)
[9] = dose: 50.0 mg/kg/injection, schedule: Q01DX001 (ip), vehicle: saline
[10] = dose: 100.0 mg/kg/injection, schedule: Q01DX001 (ip), vehicle: saline
[11] = dose: 200.0 mg/kg/injection, schedule: Q01DX001 (ip), vehicle: saline
[12] = dose: 400.0 mg/kg/injection, schedule: Q01DX001 (ip), vehicle: saline
[13] = dose: 100.0 mg/kg/injection, schedule: Q01DX001 (ip), vehicle: carboxymethylcellulose (CMC)
[14] = dose: 200.0 mg/kg/injection, schedule: Q01DX001 (ip), vehicle: carboxymethylcellulose (CMC)
[15] = dose: 100.0 mg/kg/injection, schedule: Q01DX001 (ip), vehicle: other
[16] = dose: 400.0 mg/kg/injection, schedule: Q01DX001 (ip), vehicle: other
[17] = dose: 50.0 mg/kg/injection, schedule: Q01DX009 (ip), vehicle: saline
[18] = dose: 400.0 mg/kg/injection, schedule: Q01DX009 (ip), vehicle: Klucel (hydroxypropylcellulose) (HPC)
[19] = dose: 50.0 mg/kg/injection, schedule: Q04DX002 (ip), vehicle: saline with Tween-80
[20] = dose: 100.0 mg/kg/injection, schedule: Q04DX002 (ip), vehicle: saline with Tween-80
[21] = dose: 100.0 mg/kg/injection, schedule: Q04DX003 (ip), vehicle: saline with Tween-80
[22] = dose: 200.0 mg/kg/injection, schedule: Q04DX003 (ip), vehicle: saline with Tween-80
[23] = dose: 400.0 mg/kg/injection, schedule: Q04DX003 (ip), vehicle: saline with Tween-80
[24] = dose: 200.0 mg/kg/injection, schedule: Q01DX001 (ip), vehicle: other
[25] = dose: 100.0 mg/kg/injection, schedule: Q01DX009 (ip), vehicle: saline with Tween-80
[26] = dose: 200.0 mg/kg/injection, schedule: Q01DX009 (ip), vehicle: saline with Tween-80
[27] = dose: 400.0 mg/kg/injection, schedule: Q01DX009 (ip), vehicle: saline with Tween-80

Structure (SMILES): CC(=O)Nc1ccc(Oc2ccccc2)cc1
- T/C (dose: 50.0 mg/kg/injection, schedule: Q01DX009 (ip), vehicle: Klucel (hydroxypropylcellulose) (HPC)): 102 % of control
- T/C [1]: 101 % of control
- T/C [2]: 95 % of control and 101 % of control
- T/C [3]: 106 % of control
- T/C [4]: 97 % of control and 100 % of control
- T/C [5]: 102 % of control

Structure (SMILES): CN1C(=O)OC2(CCN(CCCS(=O)(=O)c3ccc(F)cc3)CC2)C1=O
- T/C [6]: 92 % of control
- T/C [7]: 105 % of control
- T/C [8]: 93 % of control

Structure (SMILES): O=c1cc(-c2ccccc2)oc2cc(O)cc(O)c12
- T/C [9]: 100 % of control
- T/C [10]: 100 % of control
- T/C [11]: 100 % of control
- T/C [12]: 100 % of control

Structure (SMILES): O=c1[nH]cc(S)c(=O)[nH]1
- T/C [13]: 96 % of control
- T/C (dose: 100.0 mg/kg/injection, schedule: Q01DX015 (ip), vehicle: carboxymethylcellulose (CMC)): 102 % of control
- T/C [14]: 100 % of control

Structure (SMILES): c1ccc(NN(CN(Nc2ccccc2)c2ccccc2)c2ccccc2)cc1
- T/C [15]: 95 % of control
- T/C [16]: 89 % of control

Structure (SMILES): NCC(S)c1ccc(Cl)cc1 (stereo not drawn)
- T/C (dose: 12.5 mg/kg/injection, schedule: Q01DX009 (ip), vehicle: saline): 114 % of control
- T/C (dose: 25.0 mg/kg/injection, schedule: Q01DX009 (ip), vehicle: saline): 101 % of control
- T/C [17]: 97 % of control

Structure (SMILES): Cc1cc([N+](=O)[O-])c(Nc2cccc(O)c2)c([N+](=O)[O-])c1
- T/C [1]: 108 % of control
- T/C [2]: 101 % of control
- T/C [3]: 102 % of control
- T/C [4]: 95 % of control
- T/C [18]: 116 % of control
- T/C [5]: 101 % of control

Structure (SMILES): CCCCN(CCCC)C(C)=O
- T/C [9]: 94 % of control
- T/C [19]: 109 % of control
- T/C [10]: 100 % of control
- T/C [20]: 95 % of control
- T/C [11]: 100 % of control
- T/C (dose: 200.0 mg/kg/injection, schedule: Q04DX002 (ip), vehicle: saline with Tween-80): 98 % of control

Structure (SMILES): O=C(O)C1CC(n2cnc3c(=O)[nH]cnc32)CN1 (stereo not drawn)
- T/C [19]: 102 % of control
- T/C [20]: 98 % of control

Structure (SMILES): CC(C)(C)N=O
- T/C [6]: 103 % of control
- T/C [7]: 114 % of control

Structure (SMILES): COC(=O)C1CCC2(C)CCC(=O)C(C)C2C1 (stereo not drawn)
- T/C [6]: 101 % of control
- T/C [2]: 104 % of control
- T/C [7]: 104 % of control
- T/C [4]: 106 % of control
- T/C [8]: 92 % of control
- T/C [5]: 104 % of control

Structure (SMILES): NC(=O)N/N=C/c1[nH]c(=S)[nH]c(=O)c1Cc1ccccc1
- T/C [21]: 101 % of control
- T/C [22]: 94 % of control
- T/C [23]: 97 % of control

Structure (SMILES): CC(=O)c1cccc(NC(=O)N(C)Cc2ccccc2)c1
- T/C [1]: 109 % of control
- T/C [3]: 100 % of control
- T/C [18]: 112 % of control

Structure (SMILES): Cc1ccc(OC(C)C(=O)O)c(C)c1 (stereo not drawn)
- T/C (dose: 100.0 mg/kg/injection, schedule: Q04DX002 (ip), vehicle: Klucel (hydroxypropylcellulose) (HPC)): 104 % of control
- T/C (dose: 200.0 mg/kg/injection, schedule: Q04DX002 (ip), vehicle: Klucel (hydroxypropylcellulose) (HPC)): 98 % of control
- T/C (dose: 400.0 mg/kg/injection, schedule: Q04DX002 (ip), vehicle: Klucel (hydroxypropylcellulose) (HPC)): 95 % of control

Structure (SMILES): O=NN(CCCl)C(=O)NC1CCS(=O)(=O)C1 (stereo not drawn) (tested in a mixture with another compound)
- T/C (dose: 6.0 mg/kg/injection, schedule: Q01DX001 (ip), vehicle: other): 177 % of control
- T/C (dose: 9.0 mg/kg/injection, schedule: Q01DX001 (ip), vehicle: other): 270 % of control
- T/C (dose: 13.0 mg/kg/injection, schedule: Q01DX001 (ip), vehicle: other): 300 % of control
- T/C (dose: 20.0 mg/kg/injection, schedule: Q01DX001 (ip), vehicle: other): 200 % of control
- T/C (dose: 30.0 mg/kg/injection, schedule: Q01DX001 (ip), vehicle: other): 223 % of control
- T/C (dose: 44.0 mg/kg/injection, schedule: Q01DX001 (ip), vehicle: other): 184 % of control
- T/C (dose: 67.0 mg/kg/injection, schedule: Q01DX001 (ip), vehicle: other): 102 % of control

Structure (SMILES): CCOC(=O)C(=O)Cc1cnccn1
- T/C [15]: 101 % of control and 108 % of control
- T/C [24]: 100 % of control and 101 % of control
- T/C [16]: 97 % of control

Structure (SMILES): O=C(OCc1ccccc1CN1CCCC1)c1cccc(Cl)c1
- T/C [6]: 102 % of control
- T/C [7]: 117 % of control

Structure (SMILES): CC(=O)Nc1onc(C)c1N
- T/C [17]: 103 % of control
- T/C (dose: 100.0 mg/kg/injection, schedule: Q01DX009 (ip), vehicle: saline): 98 % of control
- T/C (dose: 100.0 mg/kg/injection, schedule: Q04DX003 (ip), vehicle: saline): 94 % of control
- T/C (dose: 200.0 mg/kg/injection, schedule: Q01DX009 (ip), vehicle: saline): 116 % of control and 88 % of control
- T/C (dose: 200.0 mg/kg/injection, schedule: Q04DX003 (ip), vehicle: saline): 94 % of control
- T/C (dose: 400.0 mg/kg/injection, schedule: Q04DX003 (ip), vehicle: saline): 92 % of control

Structure (SMILES): O=S(=O)(Nc1ncccn1)c1ccc(N=Nc2ccc(O)c3ncccc23)cc1
- T/C [10]: 100 % of control
- T/C [11]: 103 % of control
- T/C [12]: 103 % of control

Structure (SMILES): COc1cc2cc3c4cc(OC)c(OC)cc4cc[n+]3c(/C=C/c3ccc(Cl)cc3)c2cc1OC
- T/C [13]: 93 % of control and 99 % of control
- T/C (dose: 100.0 mg/kg/injection, schedule: Q04DX002 (ip), vehicle: carboxymethylcellulose (CMC)): 102 % of control and 103 % of control
- T/C (dose: 100.0 mg/kg/injection, schedule: Q04DX003 (ip), vehicle: carboxymethylcellulose (CMC)): 100 % of control and 103 % of control
- T/C [14]: 99 % of control and 114 % of control
- T/C (dose: 200.0 mg/kg/injection, schedule: Q04DX002 (ip), vehicle: carboxymethylcellulose (CMC)): 94 % of control and 105 % of control
- T/C (dose: 200.0 mg/kg/injection, schedule: Q04DX003 (ip), vehicle: carboxymethylcellulose (CMC)): 95 % of control and 117 % of control
- T/C (dose: 400.0 mg/kg/injection, schedule: Q01DX001 (ip), vehicle: carboxymethylcellulose (CMC)): 94 % of control and 111 % of control
- T/C (dose: 400.0 mg/kg/injection, schedule: Q04DX002 (ip), vehicle: carboxymethylcellulose (CMC)): 102 % of control and 113 % of control
- T/C (dose: 400.0 mg/kg/injection, schedule: Q04DX003 (ip), vehicle: carboxymethylcellulose (CMC)): 100 % of control and 92 % of control

Structure (SMILES): CCCCCCCCCCCCOc1ccc(C2(c3ccc(CCCCCCCCCCCC)cc3)CCCCC2)cc1
- T/C [6]: 101 % of control
- T/C [7]: 101 % of control
- T/C [8]: 106 % of control

Structure (SMILES): O=c1[nH]nc(N/N=C/c2ccccc2)n1/N=C/c1ccccc1
- T/C [2]: 100 % of control
- T/C [4]: 96 % of control
- T/C [5]: 94 % of control

Structure (SMILES): CCOC(=O)c1csc(CNC(=O)c2ccccc2)n1
- T/C (dose: 100.0 mg/kg/injection, schedule: Q01DX001 (ip), vehicle: saline with Tween-80): 107 % of control
- T/C [25]: 100 % of control
- T/C [21]: 97 % of control
- T/C (dose: 200.0 mg/kg/injection, schedule: Q01DX001 (ip), vehicle: saline with Tween-80): 98 % of control
- T/C [26]: 97 % of control
- T/C [22]: 95 % of control
- T/C (dose: 400.0 mg/kg/injection, schedule: Q01DX001 (ip), vehicle: saline with Tween-80): 104 % of control
- T/C [27]: 103 % of control
- T/C [23]: 93 % of control

Structure (SMILES): CCCCCCCCCCCCCCCCS(=O)(=O)c1ccc(S(=O)(=O)F)cc1NC(=O)C(F)(F)F
- T/C [25]: 87 % of control
- T/C [21]: 92 % of control
- T/C [26]: 97 % of control
- T/C [22]: 93 % of control
- T/C [27]: 105 % of control

Structure (SMILES): CCCB(O)O
- T/C [15]: 100 % of control
- T/C (dose: 100.0 mg/kg/injection, schedule: Q04DX003 (ip), vehicle: other): 106 % of control
- T/C [24]: 101 % of control
- T/C (dose: 200.0 mg/kg/injection, schedule: Q04DX003 (ip), vehicle: other): 105 % of control
- T/C [16]: 101 % of control
- T/C (dose: 400.0 mg/kg/injection, schedule: Q04DX003 (ip), vehicle: other): 106 % of control
